Results taken from patent US20230339952A1, “MACROCYCLIC HETEROCYCLES AND USES THEREOF” (Kumquat Biosciences Inc., priority 2022, published 2023).

Target: SOS1 (Homo sapiens (Human), UniProt Q07889)
Assay: Ras-SOS interaction assay (HTRF), K-Ras G13D utilized
Type: binding
Conditions: K-Ras G13D, read-out: SOS1 IC50
From the text: For example, the equilibrium interaction of human SOS1 (hSOS1) with human wildtype Kras or K-Ras mutant (e.g., hK-Ras G12C mutant, or hK-Ras G12C) can be assessed as a proxy or an indication for a subject compound's ability to inhibit SOS. Detection of such interaction is achieved by measuring homogenous time-resolved fluorescence resonance energy transfer (HTRF) from (i) a fluorescence resonance energy transfer (FRET) donor (e.g., antiGST-Europium) that is bound to GST-tagged K-Ras G12C to (ii) a FRET acceptor (e.g., anti-6His-XL665) bound to a His-tagged hSOS1.
A Ras working solution is prepared in assay buffer containing typically 10 nM of the protein construct (e.g., GST-tagged hK-Ras G12C) and 2 nM of the FRET donor (e.g., antiGST-Eu(K) from Cisbio, France). A SOS1 working solution is prepared in assay buffer containing typically 10 nM of the protein construct (e.g., His-hSOS1) and 10 nM of the FRET acceptor (e.g., anti-6His-XL665 from Cisbio, France). An inhibitor control solution is prepared in assay buffer containing 10 nM of the FRET acceptor without the SOS1 protein.
A fixed reaction mixture with or without test compound is transferred into a 384-well plate. Ras working solution is added to all wells of the test plate. SOS1 working solution is added to all wells except for those that are subsequently filled with the inhibitor control solution. […] The ratiometric data (i.e., emission 2 divided by emission 1) is used to calculate IC50 values against SOS1 using GraphPad Prism (GraphPad software).

Chain of SOS1 (Q07889 564-1049): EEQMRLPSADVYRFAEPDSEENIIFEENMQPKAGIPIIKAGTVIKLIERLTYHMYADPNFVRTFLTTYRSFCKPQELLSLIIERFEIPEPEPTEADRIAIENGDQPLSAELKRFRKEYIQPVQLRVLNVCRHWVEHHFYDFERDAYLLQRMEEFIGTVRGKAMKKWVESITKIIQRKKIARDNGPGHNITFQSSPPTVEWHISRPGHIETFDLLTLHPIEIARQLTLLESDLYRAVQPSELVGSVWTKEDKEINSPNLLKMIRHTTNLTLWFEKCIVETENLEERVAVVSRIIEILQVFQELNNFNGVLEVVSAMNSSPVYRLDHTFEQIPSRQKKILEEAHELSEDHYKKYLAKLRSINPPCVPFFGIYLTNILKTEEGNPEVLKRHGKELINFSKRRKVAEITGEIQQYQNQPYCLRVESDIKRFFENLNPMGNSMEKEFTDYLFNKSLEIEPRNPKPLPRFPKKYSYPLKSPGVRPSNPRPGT

| SMILES | IC50 [nM] |
| --- | --- |
| COc1cc2nc(C)nc3c2cc1OCCOCCOCCOCCOCCNC(=O)CCNCc1ccccc1C1=CC=C(S1)C(C)N3 (stereo not shown) [Compound 136, 5^7-methoxy-5^2,3-dimethyl-6,9,12,15,18-pentaoxa-4,21,25-triaza-5(4,6)-quinazolina-2(2,5)-thiophena-1(1,2)-benzenacyclohexacosaphan-22-one] | 100 to 5000 |
| C[C@H]1Nc2ncnc3c2cc(N2CCS(=O)(=O)CC2)c(=O)n3CCCOCCCCN2CCC(CC2)C(F)(F)c2cccc1c2F [Compound 69, (4R)-6^6-(1,1-dioxidothiomorpholino)-3^2,2,2-trifluoro-4-methyl-6^7,6^8-dihydro-10-oxa-5-aza-6(4,8)-pyrido[2,3-d]pyrimidina-1(4,1)-piperidina-3(1,3)-benzenacyclotetradecaphan-6^7-one] | < 100 |
| C[C@H]1Nc2nc(=O)n(c3c2cc(C2(C#N)CC2)c(=O)n3C)CCCC/C=C\COCC(F)(F)c2cccc1c2F [Compound 82, 1-((1^3E,3R,9Z)-4^2,5,5-trifluoro-1^8,3-dimethyl-1^2,1^7-dioxo-1^1,1^2,1^7,1^8-tetrahydro-7-oxa-2-aza-1(4,1)-pyrido[2,3-d]pyrimidina-4(1,3)-benzenacyclotetradecaphan-9-en-1^6-yl)cyclopropane-1-carbonitrile] | 100 to 5000 |
| CC(C)N1CCN(c2cc3c4ncnc(c4c2)N[C@H](C)c2cccc(c2)C(F)(F)C2CCN(CCCCCCO3)CC2)CC1 [Compound 195, (R)-2,2-difluoro-6^6-(4-isopropylpiperazin-1-yl)-4-methyl-7-oxa-5-aza-6(4,8)-quinazolina-1(4,1)-piperidina-3(1,3)-benzenacyclotridecaphane] | < 100 |
| C[C@H]1Nc2ncnc3c2cc(C2CCS(=O)(=O)CC2)c(=O)n3CCNC(=O)CCCN2CCC(CC2)C(F)(F)c2cccc1c2 [Compound 75, (4R)-6^6-(1,1-dioxidotetrahydro-2H-thiopyran-4-yl)-2,2-difluoro-4-methyl-6^7,6^8-dihydro-5,9-diaza-6(4,8)-pyrido[2,3-d]pyrimidina-1(4,1)-piperidina-3(1,3)-benzenacyclotridecaphane-6^7,10-dione] | < 100 |
| Cc1nnc2c3cc(N4CCOCC4)cc(c13)OCCCCCCN1CCC(CC1)C(F)(F)c1cccc(c1)[C@@H](C)N2 [Compound 196, (R)-2,2-difluoro-6^4,4-dimethyl-6^7-morpholino-7-oxa-5-aza-6(1,5)-phthalazina-1(4,1)-piperidina-3(1,3)-benzenacyclotridecaphane] | < 100 |
| Cc1nc2c3cc(C4(C#N)CC4)c(=O)n(c3n1)CCCC/C=C\CC(C)(O)C(F)(F)c1cccc(c1)[C@@H](C)N2 (stereo partly drawn) [Compound 13, 1-((3R,Z)-5,5-difluoro-6-hydroxy-1^2,3,6-trimethyl-1^7-oxo-1^7,1^8-dihydro-2-aza-1(4,8)-pyrido[2,3-d]pyrimidina-4(1,3)-benzenacyclotridecaphan-8-en-1^6-yl)cyclopropane-1-carbonitrile] | 100 to 5000 |
| C[C@H]1Nc2nc(=O)n(c3c2cc(C2(C#N)CC2)c(=O)n3C)CCC/C=C\COCC(F)(F)c2cccc1c2F [Compound 2, 1-((1^3E,3R,9Z)-4^2,5,5-trifluoro-1^8,3-dimethyl-1^2,1^7-dioxo-1^1,1^2,1^7,1^8-tetrahydro-7-oxa-2-aza-1(4,1)-pyrido[2,3-d]pyrimidina-4(1,3)-benzenacyclotridecaphan-9-en-1^6-yl)cyclopropane-1-carbonitrile] | 100 to 5000 |
| C[C@H]1Nc2ncnc3c(cc(N4CCS(=O)(=O)CC4)cc23)OCCCCCCN2CCC(CC2)C(F)(F)c2cccc1c2 [Compound 193, (R)-4-(2,2-difluoro-4-methyl-7-oxa-5-aza-6(4,8)-quinazolina-1(4,1)-piperidina-3(1,3)-benzenacyclotridecaphane-6^6-yl)thiomorpholine 1,1-dioxide] | < 100 |
| Cc1nc2c3cc(C4(C#N)CC4)c(=O)n(c3n1)CCCCCCCCCC(C)(O)C(F)(F)c1cccc(c1)[C@@H](C)N2 (stereo partly drawn) [Compound 115, 1-((3R)-5,5-difluoro-6-hydroxy-1^2,3,6-trimethyl-1^7-oxo-1^7,1^8-dihydro-2-aza-1(4,8)-pyrido[2,3-d]pyrimidina-4(1,3)-benzenacyclopentadecaphane-1^6-yl)cyclopropane-1-carbonitrile] | 100 to 5000 |
| C[C@H]1Nc2ncnc3cc(c(N4CCS(=O)(=O)CC4)cc23)OCCCCOCCCN2CCC(CC2)C(F)(F)c2cccc1c2 [Compound 192, (R)-4-(2,2-difluoro-4-methyl-7,12-dioxa-5-aza-6(4,7)-quinazolina-1(4,1)-piperidina-3(1,3)-benzenacyclopentadecaphane-6^6-yl)thiomorpholine 1,1-dioxide] | < 100 |
| COc1cc2nc(C)nc3c2cc1OCCOCCOCCOCCOCCNCc1ccccc1-c1cccc(c1)C(C)N3 (stereo not shown) [Compound 99, 5^7-methoxy-5^2,3-dimethyl-6,9,12,15,18-pentaoxa-4,21-diaza-5(4,6)-quinazolina-1(1,2),2(1,3)-dibenzenacyclodocosaphane] | 100 to 5000 |
| Cc1nc2c3cc(C4(C#N)CC4)c(=O)n(c3n1)CCCCCCCC(C)(O)C(F)(F)c1cccc(c1)[C@@H](C)N2 (stereo partly drawn) [Compound 148, 1-((3R)-5,5-difluoro-6-hydroxy-1^2,3,6-trimethyl-1^7-oxo-1^7,1^8-dihydro-2-aza-1(4,8)-pyrido[2,3-d]pyrimidina-4(1,3)-benzenacyclotridecaphane-1^6-yl)cyclopropane-1-carbonitrile] | 100 to 5000 |
| C[C@H]1Nc2ncnc3c2cc(C2CCS(=O)(=O)CC2)c(=O)n3CCCOCCCN2CCC(CC2)CC(F)(F)c2cccc1c2 [Compound 194, (3R)-1^6-(1,1-dioxidotetrahydro-2H-thiopyran-4-yl)-5,5-difluoro-3-methyl-1^7,1^8-dihydro-11-oxa-2-aza-1(4,8)-pyrido[2,3-d]pyrimidina-7(4,1)-piperidina-4(1,3)-benzenacyclotetradecaphan-1^7-one] | < 100 |
| COc1cc2nc(C)nc3c2cc1OCCOCCOCCOCCOCCNC(=O)CCCCNCc1ccccc1C1=CC=C(S1)C(C)N3 (stereo not shown) [Compound 45, 5^7-methoxy-5^2,3-dimethyl-6,9,12,15,18-pentaoxa-4,21,27-triaza-5(4,6)-quinazolina-2(2,5)-thiophena-1(1,2)-benzenacyclooctacosaphan-22-one] | < 100 |
| Cc1nc2c3cc(C4(C#N)CC4)c(=O)n(c3n1)CCC/C=C\COCC(F)(F)c1cccc(c1F)[C@@H](C)N2 [Compound 1, 1-((3R,Z)-4^2,5,5-trifluoro-1^2,3-dimethyl-1^7-oxo-1^7,1^8-dihydro-7-oxa-2-aza-1(4,8)-pyrido[2,3-d]pyrimidina-4(1,3)-benzenacyclotridecaphan-9-en-16-yl)cyclopropane-1-carbonitrile] | 100 to 5000 |
| C[C@H]1Nc2nc(=O)n(c3c2cc(C2(C#N)CC2)c(=O)n3C)CCCCCOCC(F)(F)c2cccc1c2F [Compound 5, 1-((3R,E)-4^2,5,5-trifluoro-1^8,3-dimethyl-1^2,1^7-dioxo-1^1,1^2,1^7,1^8-tetrahydro-7-oxa-2-aza-1(4,1)-pyrido[2,3-d]pyrimidina-4(1,3)-benzenacyclododecaphane-1^6-yl)cyclopropane-1-carbonitrile] | 100 to 5000 |
| Cc1nc2c3cc(C4(C#N)CC4)c(=O)n(c3n1)CCCCCCCCCOCC(F)(F)c1cccc(c1F)[C@@H](C)N2 [Compound 133, 1-((3R)-4^2,5,5-trifluoro-1^2,3-dimethyl-1^7-oxo-1^7,1^8-dihydro-7-oxa-2-aza-1(4,8)-pyrido[2,3-d]pyrimidina-4(1,3)-benzenacyclohexadecaphane-1^6-yl)cyclopropane-1-carbonitrile] | 100 to 5000 |
| COc1cc2nc(C)nc3c2cc1OCCCCOCCOCCOCCNCc1ccccc1C1=CC=C(S1)C(C)N3 (stereo not shown) [Compound 150, 5^7-methoxy-5^2,3-dimethyl-6,11,14,17-tetraoxa-4,20-diaza-5(4,6)-quinazolina-2(2,5)-thiophena-1(1,2)-benzenacyclohenicosaphane] | 100 to 5000 |
| COc1cc2nc(C)nc3c2cc1OCCOCCOCCOCCNC(=O)CCOCCNCc1ccccc1-c1cccc(c1)[C@@H](C)N3 [Compound 14, (R)-5^7-methoxy-5^2,3-dimethyl-6,9,12,15,22-pentaoxa-4,18,25-triaza-5(4,6)-quinazolina-1(1,2),2(1,3)-dibenzenacyclohexacosaphan-19-one] | 100 to 5000 |
| Cc1nc2c3cc(C4(C#N)CC4)c(=O)n(c3n1)CCCCCC/C=C\CC(C)(O)C(F)(F)c1cccc(c1)[C@@H](C)N2 (stereo partly drawn) [Compound 18, 1-((3R,Z)-5,5-difluoro-6-hydroxy-1^2,3,6-trimethyl-1^7-oxo-1^7,1^8-dihydro-2-aza-1(4,8)-pyrido[2,3-d]pyrimidina-4(1,3)-benzenacyclopentadecaphan-8-en-1^6-yl)cyclopropane-1-carbonitrile] | 100 to 5000 |
| C[C@H]1Nc2ncnc3c2cc(C2(C#N)CC2)c(=O)n3CC(=O)N(C)CCCCN2CCC(CC2(C)C)C(F)(F)c2cccc1c2 (stereo partly drawn) [Compound 93, 1-((4R)-2,2-difluoro-1^2,1^2,4,9-tetramethyl-6^7,8-dioxo-6^7,6^8-dihydro-5,9-diaza-6(4,8)-pyrido[2,3-d]pyrimidina-1(4,1)-piperidina-3(1,3)-benzenacyclotridecaphane-6^6-yl)cyclopropane-1-carbonitrile] | < 100 |
